Measurements reported in patent publication US4596806A, “7-piperidino-1,2,3,5-tetrahydroimidazo[2,1-b]-quinazolin-2-one having platelet aggregation inhibitory activity” (Daiichi Seiyaku Co., Ltd., priority 1983, dated 1986).
pIC50: −log10 of the molar value. In brackets after ≈: the same amount, converted by molar mass. Like-named read-outs stand apart in the source and are kept apart here.

Key:
[1] = Solubility Test (water-solubility); assay type: physicochemical
platelet aggregation [2] = assay: Test of Platelet Aggregation Inhibition (in vitro), human PRP; assay type: cell-based; settings: for pIC50: Homo sapiens, Platelet, human blood, read-out: Platelet Aggregation Inhibitory Activity (in vitro: IC50)
Description: The test was performed as follows in accordance with the method of Ashida et al, Thrombosis and Haemostasis, Vol. 40, p542 (1979).
Blood was taken by puncture from the heart of a Wistar Imamichi rat under anesthesia with pentobarbital into a syringe containing 1/10 volume of a 3.13% aqueous solution of sodium citrate dihydrate, and the citrated blood was centrifuged to obtain a platelet-rich-plasma (PRP). In the same manner, citrated blood was collected from the vein of a healthy human who had not taken aspirin or any other anti-inflammatory agent since before 10 days, followed by centrifugation to obtain PRP. 0.005 ml of each test compound was added to 0.445 ml each of these PRP samples, and the system was warmed at 30° C. for 1 minute. 0.05 ml of an aggregation inducer (ADP or collagen) was then added thereto, and platelet aggregation was determined according to the method of Born, Nature, Vol. 194, p927 (1962). The inhibitory activity of platelet aggregation was expressed in terms of 50% inhibition concentration, and the results obtained are shown in Table 2.

platelet aggregation [3] = assay: Test of Platelet Aggregation Inhibition (ex vivo, p.o.); assay type: in vivo, rat (male Wistar Imamichi); settings: for inhibition at 1 mg/kg / inhibition at 10 mg/kg: Rattus norvegicus, Platelet, po, 1 h, read-out: Platelet Aggregation Inhibitory Activity (ex vivo: % inhibition); for inhibition at 1 mg/kg: p.o. 1 mg/Kg; for inhibition at 10 mg/kg: p.o. 10 mg/Kg
Description: One hour later, citrated blood was taken from the heart, and platelet aggregation was determined in the same manner as described in Test Example 2.

circulatory system = assay: Test of Influence on Circulatory System (blood pressure, heart beat); assay type: in vivo, rat (male normal SLC-Wistar); settings: p.o. 50 mg/Kg
Description: 5 or 6 male normal SLC-Wistar rats per group (body weight: 205-255 g) orally received 50 mg/Kg of the test compound, and the blood pressure (tail cuff method) and the heart beats were measured with the passage of time in order to elucidate influences of the test compound on the circulatory system.

[4] = test system: B16BL6-induced aggregation; assay: Test of Inhibition of Platelet Aggregation Caused by Cancer Cells (ex vivo), B16BL6; assay type: in vivo, C57BL/6 mouse; settings: 1 mg/kg or more, i.v. or oral
Description: The compound of the invention (dihydrochloride monohydrate) dissolved in a physiological saline solution (J.P.) was intravenously or orally administered to a 7-week-old C57BL/6 male mouse (body weight: about 20 g). Three minutes after the intravenous administration or 1 hour later from the oral administration, blood was taken from the abdominal vein into a syringe containing 1/10 volume of a 3.13% aqueous solution of sodium citrate dihydrate and PRP was prepared as described before in Test Example 6. The PRP was placed in a reaction tube under the same conditions as in Test Example 6, and 5 μl of a 200 mM calcium chloride aqueous solution was added thereto. One minute later, 50 μl of a B16BL6 (5×10^4 cells/50 μl)- or a 3LL (2×10^6 cells/50 μl)-cell suspension was added to the system. In the same manner as in Test Example 6, platelet aggregation was determined.

[5] = test system: B16BL6-Induced Acute Pulmonary Embolism; assay: Test of Inhibition of Death by Acute Pulmonary Embolism; assay type: in vivo, C57BL/6 mouse
Description: The compound of the present invention (dihydrochloride monohydrate) was dissolved in a physiological saline solution (J.P.) and intravenously administered to the tail vein of a 5-week-old (C57BL/6 male mouse (body weight: about 18.5 g) at a dose of 10 mg/kg or 30 mg/kg. After 3 minutes, 5×10^5 cells of B16BL6 were intravenously inoculated to the tail vein. The death ratios 3 and 10 minutes after the inoculation are shown in Table 6.

B16BL6 = assay: Test of Inhibition on Pulmonary Metastasis, B16BL6; assay type: in vivo, C57BL/6 mouse; settings: day 13, mean ± standard error
Description: 1×10^5 cells/animal of B16BL6 or 7×10^5 cells/animal of 3LL were inoculated to the tail vein of 10 to 12 6-week-old C57BL/6 male mice per group (body weight: about 18.5 g). The compound (I) (dihydrochloride monohydrate) dissolved in a physiological saline solution (J.P.) was administered to each animal at a dose of 1, 3 or 10 mg/kg orally 24 hours, 1 hour before and 1 hour after the inoculation, or intravenously immediately before the inoculation. On the 13th day from the inoculation of B16BL6 or 11th day from the inoculation of 3LL, the number of metastatic nodules in the lungs was counted using an operating microscope.

[6] = LD50 (probit method), mouse; settings: in vivo, iv
[7] = test system: Water Immersion and Immobilization-induced Gastric Ulcer; assay: Effect on Water Immersion and Immobilization-induced Gastric Ulcer in Rats; assay type: in vivo, rat (Donryu male); settings: p.o.
Description: Donryu male rats having a body weight of 352 to 414 g were subjected to the stress-induced gastric ulceration test by water-immersion and immobilization [Takagi and Okabe, Japan J. Pharmacol., 18, 9-18 (1968)] at a water temperature of 20° to 22° C. for 7 hours. Compound (I) was administered orally in the form of a suspension in a 0.5% aqueous CMC solution at a dose of 5 ml/Kg 30 minutes before loading the stress. After the test period, the rats were sacrificed and the hyperemic area and the erosious area on the stomach inside wall were measured to determine % inhibition of the ulcer.

O=C1CN2Cc3cc(N4CCCCC4)ccc3N=C2N1 [Compound (I), 7-piperidino-1,2,3,5-tetrahydroimidazo[2,1-b]quinazolin-2-one] showed a solubility ([1]; Water at pH 4) of 4.1 mg/mL (≈ 15.2 mM), a solubility ([1]; pH 2, Tap Water, solution pH about 2) of 270 mg/mL (≈ 999 mM) and a pIC50 (platelet aggregation [2]; inducer ADP) of 5.60. The pIC50 (platelet aggregation [2]; inducer collagen) was 6.28, the “anti-platelet aggregation activity (in words)” value (platelet aggregation [2]; in vitro, Table 2 results (human and rat PRP)) was “substantially equal to that of BL-3459 and BL-4162” and the inhibition at 1 mg/kg (platelet aggregation [3]; inducer ADP) was 16.8%. The inhibition at 1 mg/kg (platelet aggregation [3]; inducer collagen) was 20.6%, the inhibition at 10 mg/kg (platelet aggregation [3]; inducer ADP) was 33.8% and the inhibition at 10 mg/kg (platelet aggregation [3]; inducer collagen) was 59.5%. The “aggregation inhibitory activity ex vivo (in words)” value (platelet aggregation [3]; p.o. 10 mg/Kg or 1 mg/Kg, ADP- or collagen-induced) was “significant aggregation inhibitory activity”, the “reduction in blood pressure and increase in heart beat (in words)” value (circulatory system) was “relatively small and also these changes can be restored in short periods of time” and the “Increase in Heart Beat” value (circulatory system; 1 hr after admin.) was 27%. For the same compound, the “Reduction in Blood Pressure” value (circulatory system; 1 hr after admin.) was 18%, the “Increase in Heart Beat” value (circulatory system; 2 hr after admin.) was 32% and the “Reduction in Blood Pressure” value (circulatory system; 2 hr after admin.) was 12%. The “Increase in Heart Beat” value (circulatory system; 3 hr after admin.) was 27%, the “Reduction in Blood Pressure” value (circulatory system; 3 hr after admin.) was 12% and the “Increase in Heart Beat” value (circulatory system; 5 hr after admin.) was 25%. For the same compound, the “Reduction in Blood Pressure” value (circulatory system; 5 hr after admin.) was 12%, the “Increase in Heart Beat” value (circulatory system; 6 hr after admin.) was 17% and the “Reduction in Blood Pressure” value (circulatory system; 6 hr after admin.) was 9%. The “inhibition of B16BL6-induced aggregation (ex vivo)” value [4] was “completely inhibited”, the “Number of Dead Animals/Number of Tested Animals” value ([5]; i.v. 10 mg/kg, after 3 min) was 2/9 and the “Number of Dead Animals/Number of Tested Animals” value ([5]; i.v. 10 mg/kg, after 10 min) was 4/9. The “Number of Dead Animals/Number of Tested Animals” value ([5]; i.v. 30 mg/kg, after 3 min) was 1/9, the “Number of Dead Animals/Number of Tested Animals” value ([5]; i.v. 30 mg/kg, after 10 min) was 4/9 and the “Number of Metastatic Nodules in the Lungs” value (“Number of Metastatic Nodules” for short) (B16BL6; 1 mg/kg) was 5.5 ± 1.1. For the same compound, the “Number of Metastatic Nodules” value (B16BL6; 3 mg/kg) was 5.3 ± 1.1, the “Number of Metastatic Nodules” value (B16BL6; 10 mg/kg) was 6.4 ± 1.1 and the LD50 ([6]; female ddy mouse) was 380 mg/kg. For the same compound, the LD50 ([6]; male ddy mouse) was 314 mg/kg, the “Ulcer Index, Erosious Area” value ([7]; 30 mg/kg) was 17.8 ± 5.7 mm and the “Ulcer Index, Erosious Area, Inhibition” value ([7]; 30 mg/kg) was 32%. For the same compound, the “Ulcer Index, Hyperemic Area” value ([7]; 30 mg/kg) was 19.4 ± 9.0 mm, the “Ulcer Index, Hyperemic Area, Inhibition” value ([7]; 30 mg/kg) was 69% and the “Ulcer Index, Erosious Area” value ([7]; 100 mg/kg) was 1.3 ± 0.8 mm. For the same compound, the “Ulcer Index, Erosious Area, Inhibition” value ([7]; 100 mg/kg) was 95%, the “Ulcer Index, Hyperemic Area” value ([7]; 100 mg/kg) was 0 mm and the “Ulcer Index, Hyperemic Area, Inhibition” value ([7]; 100 mg/kg) was 100%. The “Ulcer Index, Erosious Area” value ([7]; 300 mg/kg) was 2.6 ± 1.3 mm, the “Ulcer Index, Erosious Area, Inhibition” value ([7]; 300 mg/kg) was 90% and the “Ulcer Index, Hyperemic Area” value ([7]; 300 mg/kg) was 0 mm. The “Ulcer Index, Hyperemic Area, Inhibition” value ([7]; 300 mg/kg) was 100%.
